Reference: article PMC6547440, “The HRP3 PWWP domain recognizes the minor groove of double-stranded DNA and recruits HRP3 to chromatin” (Nucleic Acids Research, 2019)
Each block holds one compound with its values, some of them ahead of it. {FAM} = FAM (fluorescein) label on dsDNA for MST

How the values were obtained:
chromatin of HepG2 cells = experiment: ChIP-Seq of GFP-HRP3 variants in HepG2 cells; assay type: cell-based, human
Method: (§1) HepG2 (ATCC HB-8065) and HEK293T human embryonic kidney cells (ATCC #CRL-11268) were cultured in Dulbecco’s modified Eagle’s medium supplemented with 10% FBS. Stable overexpression of wild-type or mutant HRP3 in HepG2 cells was performed using FUGW lentiviral constructs expressing wild-type or mutant HRP3. Lentiviral vector infections ([47]) and plasmid transfections ([48]) were performed as previously described. Overexpression efficiency was determined by western blot.
For chromatin immunoprecipitation, HepG2 cells were cross-linked with 1% formaldehyde at 37°C for 10 min and quenched with 0.125 M glycine for 5 min at room temperature. ChIP was performed using a ChIP assay kit (Millipore) according to the manufacturer’s protocol. Antibodies used for ChIP were GFP (gta-20, Chromo-Tek) and H3K36me3 (ab9050, abcam).
ChIP-Seq data were aligned to human genome hg19 using Bowtie 1.0 allowing one mismatch. Two biological replicates were performed and combined for the analysis. Analysis was performed using the Galaxy ([49]) and Cistrome ([50]) Platform and via custom R scripts for Bioconductor ([51]). Peak calling was performed using MACS2. Promoter definitions were downloaded from the UCSC browser ([52]). DNase I hypersensitivity and MNase-Seq data from ENCODE (GSM816662, GSM920557) ([53]) were used.

HepG2 cells = experiment: Fluorescence microscopy of GFP-HRP3 in HepG2 cells; assay type: cell-based, human; conditions: GFP fusion in HepG2 cells
Method: as §1
The cells were first fixed with 4% paraformaldehyde in PBS buffer for 30 min at room temperature, and then washed with PBS buffer twice. The cells were permeabilized with 0.5% Triton X-100 in PBS buffer for 10 min followed with PBS washing twice. Then, the cells were incubated with1 μg/ml 4′,6-diamidino-2-phenylindole (DAPI) (C0060, Solarbio) in PBS for 5 min. After washing with PBS buffer twice, the cells were ready for microscopic observation. 3D structural illumination microscopy was performed using N-SIM Super-resolution Microscope System (Nikon) with an objective lens CFI Plan (Apochromat Lambda 40 ×, 0.95 numerical aperture; Nikon).

HRP3 PWWP WT = target: T1, HRP3 PWWP WT (Homo sapiens, UniProt Q9Y3E1); experiment: NMR titration of H3K36 peptides with wild-type HRP3 PWWP; assay type: binding; conditions: 15N-labelled HRP3 PWWP (1–110) WT, H3 residues 29–41, 20 mM PBS pH 6.9, 20 mM NaCl, 2 mM DTT, 298 K
T1 construct: using ^15N-labelled HRP3 PWWP (residues 1–110) dissolved in buffer; 6xHis-SUMO (cleaved yes); made in house; host or cells: Escherichia coli Rosetta (DE3)
Method: (§2) All 2D ^1H-^15N HSQC NMR spectra were collected on the Bruker Avance III HD 600 MHz and 800 MHz spectrometers at 298 K. The NMR data were processed by NMRPipe ([39]) and analysed by KUJIRA ([40]) running with NMRview ([41]) softwares. Chemical shift perturbation experiments were carried out using ^15N-labelled HRP3 PWWP (residues 1–110) dissolved in buffer containing 20 mM PBS at pH 6.9, 20 mM NaCl and 2 mM DTT. A series of 2D ^1H-^15N HSQC spectra were recorded at HRP3 PWWP:H3K36me3/2/1/0 (residues 29–41) molar ratios of 1:0, 1:0.5, 1:1.5, 1:4, 1:6, 1:10, 1:15 and 1:20, respectively. The combined chemical shift perturbation was calculated using the following equation: Δδ = [(Δδ^1H)^2 + (Δδ^15N/5)^2]^1/2. Dissociation constants were calculated by fitting the data to a single-site ligand-binding model (SigmaPlot).

HRP3 PWWP Y22A = target: T2, HRP3 PWWP Y22A (Homo sapiens, UniProt Q9Y3E1, Y22A); experiment: NMR titration of H3K36me3 peptide with HRP3 PWWP Y22A; assay type: binding; conditions: H3 residues 29–41, 20 mM PBS pH 6.9, 298 K
T2 construct: using ^15N-labelled HRP3 PWWP (residues 1–110) dissolved in buffer; 6xHis-SUMO (cleaved yes); made in house; host or cells: Escherichia coli Rosetta (DE3)
Method: as §2

HRP3 PWWP F48A = target: T3, HRP3 PWWP F48A (Homo sapiens, UniProt Q9Y3E1, F48A); experiment: NMR titration of H3K36me3 peptide with HRP3 PWWP F48A; assay type: binding; conditions: H3 residues 29–41, 20 mM PBS pH 6.9, 298 K
T3 construct: using ^15N-labelled HRP3 PWWP (residues 1–110) dissolved in buffer; 6xHis-SUMO (cleaved yes); made in house; host or cells: Escherichia coli Rosetta (DE3)
Method: as §2

HRP3 PWWP E53A = target: T4, HRP3 PWWP E53A (Homo sapiens, UniProt Q9Y3E1, E53A); experiment: NMR titration of H3K36me3 peptide with HRP3 PWWP E53A; assay type: binding; conditions: H3 residues 29–41, 20 mM PBS pH 6.9, 298 K
T4 construct: using ^15N-labelled HRP3 PWWP (residues 1–110) dissolved in buffer; 6xHis-SUMO (cleaved yes); made in house; host or cells: Escherichia coli Rosetta (DE3)
Method: as §2

HRP3 PWWP [1] = experiment: MST binding of 5′-FAM-labelled dsDNAs to HRP3 PWWP; design: species or system human; conditions: 16-mer-TA versus 16-mer-random and 16-mer-GC
Method: All Mircoscale thermophoresis (MST) experiments were performed on a Monolith NT115 machine with 20% MST power and 100% LED power. All protein and DNA samples were dissolved in solution containing 50 mM KCl, 10 mM sodium cacodylate at pH 6.5 and 2 mM DTT. The MST samples were prepared by mixing HRP3(1-110) at concentrations ranging from 3 nM to 100 μM into a solution containing 200 nM 5′-FAM-labelled dsDNA. Experiments were performed using Monolith NT115 Standard Treated Capillaries, MO-K002. Dissociation constants were fitted with the MO Affinity Analysis software.
The DNA sequences used in this assay are as follows: 5′-FAM-16TA: 5′-[…]-3′; 5′-FAM-16GC: 5′-[…]-3′; and 5′-FAM-16random: 5′-[…]-3′.

HRP3 PWWP [2] = experiment: ITC of HRP3 PWWP with dsDNAs; assay type: binding, human; conditions: 20°C, HRP3 PWWP (1–110), 10 mM PBS pH 7.0, 50 mM NaCl, 2 mM β-mercaptoethanol
Method: Isothermal titration calorimetry-based measurements were carried out at 20°C with a MicroCal iTC200 instrument. HRP3 PWWP (1–110) and various dsDNAs were dialysed overnight at 4°C in titration buffer containing 10 mM phosphate-buffered saline (PBS) at pH 7.0, 50 mM NaCl and 2 mM β-mercaptoethanol. Calorimetric titration data were fitted with the Origin software under the algorithm of one binding-site model.

HRP3 PWWP [3] = experiment: DNA geometry analysis of the PWWP/DNA complex structures; design: species or system human
Method: DNA geometry was analysed with the 3DNA ([42]) and Curves+ ([43]) programs. Electrostatic potentials were calculated using the DelPhi program ([44]). The minor groove width was measured according to the method described ([45]). In detail, the distances between the ith (i indicates the number of the base from one chain) phosphate atom from one chain and the (i + 4)th atom from the paired chain were used to describe the minor groove width at the ith base. Electrostatic potentials were calculated at the midpoints between the above phosphate atom pairs used to calculate the minor groove widths.

HRP3 PWWP aromatic cage = experiment: Crystal structure of apo-form HRP3 PWWP (8–94), MES in aromatic cage; assay type: binding, human; conditions: 0.95 Å
Method: Crystallization was conducted using the sitting drop vapour diffusion method by mixing an equal volume of protein and well solution. Apo-form HRP3 PWWP (8–94) was crystallized with crystallization buffer containing 0.2 M ammonium sulfate, 0.1 M MES monohydrate, pH 6.5 and 30% w/v polyethylene glycol monomethyl ether 5000. The crystallization buffer containing 12% 2,3-butanediol was used as the cryoprotectant.
Datasets for all crystals were collected at the beamlines of the Shanghai Synchrotron Radiation Facility (SSRF). The datasets were processed using HKL2000 ([33]), and the structures were solved by molecular replacement using the programme PHENIX ([34]) with the HDGF2 PWWP domain (PDB number: 3EAE) as the search model. The initial model was rebuilt in COOT ([35]) and further refined by PHENIX.

T3 sequence (Q9Y3E1 1-110 F48A limits assumed): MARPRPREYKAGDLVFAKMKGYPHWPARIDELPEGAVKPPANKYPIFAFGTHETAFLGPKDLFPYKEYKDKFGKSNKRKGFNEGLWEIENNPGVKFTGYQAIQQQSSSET
T1 sequence (Q9Y3E1 1-110): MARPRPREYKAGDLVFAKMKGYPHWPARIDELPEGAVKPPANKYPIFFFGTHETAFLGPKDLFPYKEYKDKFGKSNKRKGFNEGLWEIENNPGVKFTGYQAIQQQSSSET
T4 sequence (Q9Y3E1 1-110 E53A limits assumed): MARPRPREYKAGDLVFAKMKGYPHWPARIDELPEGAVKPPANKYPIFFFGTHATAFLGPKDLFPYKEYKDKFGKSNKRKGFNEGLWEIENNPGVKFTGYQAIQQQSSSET
T2 sequence (Q9Y3E1 1-110 Y22A): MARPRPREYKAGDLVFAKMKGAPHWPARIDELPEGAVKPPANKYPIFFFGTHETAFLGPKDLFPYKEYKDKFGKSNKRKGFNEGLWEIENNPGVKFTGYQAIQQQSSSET

Compound: HRP3: wild-type human HRP3 as GFP fusion protein in HepG2 cells
DNase I hypersensitivity and nucleosome density of HRP3-enriched regions (chromatin of HepG2 cells; ChIP-Seq versus ENCODE DNase I / MNase-Seq data): increased DNase I hypersensitivity and reduced nucleosome density | chromatin binding / recruitment by ChIP-Seq (chromatin of HepG2 cells; ChIP-Seq with GFP antibody, HepG2, two biological replicates combined): enriched at promoters and gene bodies | specific DNA-binding motif enrichment (chromatin of HepG2 cells; ChIP-Seq, HepG2): could not detect the enrichment of a specific DNA-binding motif | subcellular localisation (HepG2 cells): enriched in the nucleus

Kd (HRP3 PWWP WT): 1.4 ± 0.6 mM | Kd (HRP3 PWWP Y22A): 21 ± 9 mM | Kd (HRP3 PWWP F48A): 9.4 ± 2.1 mM | Kd (HRP3 PWWP E53A): 8 ± 1.9 mM
Compound: CC(C)[C@H](NC(=O)CNC(=O)CNC(=O)[C@@H](NC(=O)[C@H](C)NC(=O)[C@@H]1CCCN1C(=O)[C@H](C)N)[C@@H](C)O)C(=O)N[C@@H](CCCC[N+](C)(C)C)C(=O)N[C@@H](CCCCN)C(=O)N1CCC[C@H]1C(=O)N[C@@H](Cc1c[nH]cn1)C(=O)N[C@@H](CCCNC(=N)N)C(=O)N[C@@H](Cc1ccc(O)cc1)C(=O)O [H3K36me3]

Compound: 5′-TATATATATATATATA-3′ (DNA, 5' {FAM}, backbone not given here; double-stranded DNA, FAM label in MST assay) [16-mer-TA, 16-bp TA-rich dsDNA]
fold higher affinity (HRP3 PWWP [1]): 2–3 fold | TA-rich preference by ITC (HRP3 PWWP [2]): TA-rich preference was further verified by ITC-based measurements | average helical twist (HRP3 PWWP [3]; 3DNA): 37.1 ° | average propeller twist (HRP3 PWWP [3]; 3DNA): −11.2 ° | bending angle towards the minor groove per 6 bps (HRP3 PWWP [3]; Curve+ software): 2.9 ° | width of the minor groove, PWWP-binding region (HRP3 PWWP [3]; crystal structure of complex): 10.7 Å | width of the minor groove, PWWP-free region (HRP3 PWWP [3]; crystal structure of complex): 10.8 Å

Compound: O=S(=O)(O)CCN1CCOCC1 [MES]
position of bound molecule (HRP3 PWWP aromatic cage): positioned in the middle of the aromatic cage
